#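 Cells were grown in 96-well plates and exposed to each compound for 48 hours at five concentrations; endpoints were interpolated linearly between bracketing concentrations, or set to the highest concentration if not reached. GI50 = concentration required for 50% inhibition of growth. TGI: total growth inhibition.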
# Experiments:
# Test in all cases: inhibition of tumour cell growth, NCI panel, 48 h
# CCRF-CEM leukemia = tested on: CCRF-CEM leukemia
# ACHN renal = tested on: ACHN renal
# SK-MEL-2 melanoma = tested on: SK-MEL-2 melanoma
# IGROV1 ovarian = tested on: IGROV1 ovarian
# OVCAR-5 ovarian = tested on: OVCAR-5 ovarian
# KM12 colon = tested on: KM12 colon
# NCI/ADR-RES ovarian = tested on: NCI/ADR-RES ovarian
# SK-OV-3 ovarian = tested on: SK-OV-3 ovarian
# HOP-62 NSCLC = tested on: HOP-62 NSCLC
# MDA-N = tested on: MDA-N
# NCI-H522 lung = tested on: NCI-H522 lung
# NCI-H226 lung = tested on: NCI-H226 lung
# OVCAR-4 ovarian = tested on: OVCAR-4 ovarian
# MCF7 breast = tested on: MCF7 breast
# U251 CNS = tested on: U251 CNS
# MDA-MB-231 breast = tested on: MDA-MB-231 breast
# HCC-2998 colon = tested on: HCC-2998 colon
# BT-549 breast = tested on: BT-549 breast
# PC-3 prostate = tested on: PC-3 prostate
# SR leukemia = tested on: SR leukemia
# SF-539 CNS = tested on: SF-539 CNS
# RXF 393 renal = tested on: RXF 393 renal
# 786-0 renal = tested on: 786-0 renal
# UO-31 renal = tested on: UO-31 renal
# DU-145 prostate = tested on: DU-145 prostate
# SK-MEL-5 melanoma = tested on: SK-MEL-5 melanoma
# SNB-19 CNS = tested on: SNB-19 CNS
# M14 melanoma = tested on: M14 melanoma
# RPMI-8226 leukemia = tested on: RPMI-8226 leukemia
# HCT-116 colon = tested on: HCT-116 colon
# SF-268 CNS = tested on: SF-268 CNS
# SK-MEL-28 melanoma = tested on: SK-MEL-28 melanoma
# NCI-H23 lung = tested on: NCI-H23 lung
# HCT-15 colon = tested on: HCT-15 colon
# LOX IMVI melanoma = tested on: LOX IMVI melanoma
# UACC-62 melanoma = tested on: UACC-62 melanoma
# A549 NSCLC = tested on: A549 NSCLC
# COLO 205 colon = tested on: COLO 205 colon
# SNB-75 CNS = tested on: SNB-75 CNS
# HL-60(TB) leukemia = tested on: HL-60(TB) leukemia
# CAKI-1 renal = tested on: CAKI-1 renal
# HOP-92 NSCLC = tested on: HOP-92 NSCLC
# K-562 leukemia = tested on: K-562 leukemia
# SF-295 CNS = tested on: SF-295 CNS
# SW-620 colon = tested on: SW-620 colon
# HS 578T breast = tested on: HS 578T breast
# OVCAR-3 ovarian = tested on: OVCAR-3 ovarian
# HT29 colon = tested on: HT29 colon
# OVCAR-8 ovarian = tested on: OVCAR-8 ovarian
# TK-10 renal = tested on: TK-10 renal
# NCI-H460 lung = tested on: NCI-H460 lung
# EKVX NSCLC = tested on: EKVX NSCLC
# SN12C renal = tested on: SN12C renal
# MALME-3M melanoma = tested on: MALME-3M melanoma
# MDA-MB-435 = tested on: MDA-MB-435
# A498 renal = tested on: A498 renal
# UACC-257 melanoma = tested on: UACC-257 melanoma
# T-47D breast = tested on: T-47D breast
# MOLT-4 leukemia = tested on: MOLT-4 leukemia
compound,measurement,setting,value
CN(NC(=O)CC(=O)NN(C)C(=S)c1ccccc1)C(=S)c1ccccc1,GI50,CCRF-CEM leukemia,64.7 µM
same,TGI,CCRF-CEM leukemia,> 100 µM
same,GI50,ACHN renal,73.9 µM
same,TGI,ACHN renal,> 100 µM
same,GI50,SK-MEL-2 melanoma,8.77 µM
same,TGI,SK-MEL-2 melanoma,> 100 µM
same,TGI,IGROV1 ovarian,> 100 µM
same,TGI,OVCAR-5 ovarian,> 100 µM
same,GI50,KM12 colon,65.1 µM
same,TGI,KM12 colon,> 100 µM
same,GI50,NCI/ADR-RES ovarian,55.3 µM
same,TGI,NCI/ADR-RES ovarian,> 100 µM
same,TGI,SK-OV-3 ovarian,> 100 µM
same,GI50,HOP-62 NSCLC,> 69.2 µM
same,TGI,HOP-62 NSCLC,> 100 µM
same,TGI,MDA-N,> 100 µM
same,GI50,NCI-H522 lung,69.9 µM
same,TGI,NCI-H522 lung,> 100 µM
same,TGI,NCI-H226 lung,> 100 µM
same,GI50,OVCAR-4 ovarian,> 71.2 µM
same,TGI,OVCAR-4 ovarian,> 100 µM
same,GI50,MCF7 breast,< 0.01 µM
same,TGI,MCF7 breast,> 100 µM
same,GI50,U251 CNS,49.8 µM
same,TGI,U251 CNS,> 100 µM
same,GI50,MDA-MB-231 breast,> 100 µM
same,TGI,MDA-MB-231 breast,> 100 µM
same,TGI,HCC-2998 colon,> 100 µM
same,GI50,BT-549 breast,88.7 µM
same,TGI,BT-549 breast,> 100 µM
same,GI50,PC-3 prostate,51.5 µM
same,TGI,PC-3 prostate,> 100 µM
same,TGI,SR leukemia,> 100 µM
same,TGI,SF-539 CNS,> 100 µM
same,GI50,RXF 393 renal,> 61.1 µM
same,TGI,RXF 393 renal,> 100 µM
same,GI50,786-0 renal,56.3 µM
same,TGI,786-0 renal,> 100 µM
same,GI50,UO-31 renal,14.6 µM
same,TGI,UO-31 renal,> 89.6 µM
same,GI50,DU-145 prostate,> 59.2 µM
same,TGI,DU-145 prostate,> 100 µM
same,GI50,SK-MEL-5 melanoma,49.1 µM
same,TGI,SK-MEL-5 melanoma,> 100 µM
same,TGI,SNB-19 CNS,> 100 µM
same,GI50,M14 melanoma,> 73.7 µM
same,TGI,M14 melanoma,> 100 µM
same,TGI,RPMI-8226 leukemia,> 100 µM
same,TGI,HCT-116 colon,> 100 µM
same,GI50,SF-268 CNS,67.2 µM
same,TGI,SF-268 CNS,> 100 µM
same,GI50,SK-MEL-28 melanoma,> 72.8 µM
same,TGI,SK-MEL-28 melanoma,> 100 µM
same,GI50,NCI-H23 lung,> 87.4 µM
same,TGI,NCI-H23 lung,> 100 µM
same,GI50,HCT-15 colon,32.1 µM
same,TGI,HCT-15 colon,> 100 µM
same,TGI,LOX IMVI melanoma,> 100 µM
same,TGI,UACC-62 melanoma,> 100 µM
same,GI50,A549 NSCLC,16.7 µM
same,TGI,A549 NSCLC,> 100 µM
same,TGI,COLO 205 colon,> 100 µM
same,GI50,SNB-75 CNS,> 54.6 µM
same,TGI,SNB-75 CNS,> 100 µM
same,GI50,HL-60(TB) leukemia,> 70.7 µM
same,TGI,HL-60(TB) leukemia,> 100 µM
same,GI50,CAKI-1 renal,> 55.7 µM
same,TGI,CAKI-1 renal,> 100 µM
same,TGI,HOP-92 NSCLC,> 100 µM
same,GI50,K-562 leukemia,40.8 µM
same,TGI,K-562 leukemia,> 100 µM
same,TGI,SF-295 CNS,> 100 µM
same,TGI,SW-620 colon,> 100 µM
same,GI50,HS 578T breast,19.2 µM
same,TGI,HS 578T breast,> 100 µM
same,TGI,OVCAR-3 ovarian,> 100 µM
same,TGI,HT29 colon,> 100 µM
same,GI50,OVCAR-8 ovarian,> 66.7 µM
same,TGI,OVCAR-8 ovarian,> 100 µM
same,TGI,TK-10 renal,> 100 µM
same,GI50,NCI-H460 lung,0.0843 µM
same,TGI,NCI-H460 lung,> 100 µM
same,TGI,EKVX NSCLC,> 100 µM
same,GI50,SN12C renal,> 100 µM
same,TGI,SN12C renal,> 100 µM
same,GI50,MALME-3M melanoma,> 69.5 µM
same,TGI,MALME-3M melanoma,> 100 µM
same,GI50,MDA-MB-435,> 84.4 µM
same,TGI,MDA-MB-435,> 100 µM
N#Cc1nc(C(F)(F)F)oc1N,TGI,CCRF-CEM leukemia,> 100 µM
same,TGI,ACHN renal,> 100 µM
same,TGI,SK-MEL-2 melanoma,> 100 µM
same,TGI,IGROV1 ovarian,> 100 µM
same,TGI,OVCAR-5 ovarian,> 100 µM
same,TGI,KM12 colon,> 100 µM
same,TGI,NCI/ADR-RES ovarian,> 100 µM
same,TGI,SK-OV-3 ovarian,> 100 µM
same,TGI,HOP-62 NSCLC,> 100 µM
same,TGI,MDA-N,> 100 µM
same,TGI,NCI-H522 lung,> 100 µM
same,TGI,NCI-H226 lung,> 100 µM
same,TGI,A498 renal,> 100 µM
same,TGI,OVCAR-4 ovarian,> 100 µM
same,TGI,MCF7 breast,> 100 µM
same,TGI,UACC-257 melanoma,> 100 µM
same,TGI,U251 CNS,> 100 µM
same,TGI,MDA-MB-231 breast,> 100 µM
same,TGI,HCC-2998 colon,> 100 µM
same,TGI,PC-3 prostate,> 100 µM
same,TGI,SR leukemia,> 100 µM
same,TGI,SF-539 CNS,> 100 µM
same,TGI,RXF 393 renal,> 100 µM
same,TGI,786-0 renal,> 100 µM
same,TGI,UO-31 renal,> 100 µM
same,TGI,DU-145 prostate,> 100 µM
same,TGI,SK-MEL-5 melanoma,> 100 µM
same,TGI,SNB-19 CNS,> 100 µM
same,TGI,M14 melanoma,> 100 µM
same,TGI,T-47D breast,> 100 µM
same,TGI,RPMI-8226 leukemia,> 100 µM
same,TGI,HCT-116 colon,> 100 µM
same,TGI,SF-268 CNS,> 100 µM
same,TGI,SK-MEL-28 melanoma,> 100 µM
same,TGI,NCI-H23 lung,> 100 µM
same,TGI,HCT-15 colon,> 100 µM
same,TGI,LOX IMVI melanoma,> 100 µM
same,TGI,UACC-62 melanoma,> 100 µM
same,TGI,A549 NSCLC,> 100 µM
same,TGI,MOLT-4 leukemia,> 100 µM
same,TGI,COLO 205 colon,> 100 µM
same,TGI,SNB-75 CNS,> 100 µM
same,TGI,HL-60(TB) leukemia,> 100 µM
same,TGI,CAKI-1 renal,> 100 µM
same,TGI,HOP-92 NSCLC,> 100 µM
same,TGI,K-562 leukemia,> 100 µM
same,TGI,SF-295 CNS,> 100 µM
same,TGI,SW-620 colon,> 100 µM
same,TGI,HS 578T breast,> 100 µM
same,TGI,OVCAR-3 ovarian,> 100 µM
same,TGI,HT29 colon,> 100 µM
same,TGI,OVCAR-8 ovarian,> 100 µM
same,TGI,TK-10 renal,> 100 µM
same,TGI,NCI-H460 lung,> 100 µM
same,TGI,EKVX NSCLC,> 100 µM
same,TGI,SN12C renal,> 100 µM
same,TGI,MALME-3M melanoma,> 100 µM
same,TGI,MDA-MB-435,> 100 µM
COC(=O)c1c(O)ccc2c1c1c(n2Cc2ccc(OC)cc2)C(=O)c2ccccc2C1=O,TGI,CCRF-CEM leukemia,0.296 µM
same,TGI,ACHN renal,12.6 µM
same,TGI,SK-MEL-2 melanoma,25.6 µM
same,TGI,IGROV1 ovarian,21.4 µM
same,TGI,OVCAR-5 ovarian,51.7 µM
same,TGI,KM12 colon,45.3 µM
same,TGI,NCI/ADR-RES ovarian,37.2 µM
same,TGI,SK-OV-3 ovarian,48.1 µM
same,TGI,HOP-62 NSCLC,33.2 µM
same,TGI,MDA-N,32.7 µM
same,TGI,NCI-H522 lung,17.1 µM
same,TGI,NCI-H226 lung,25.8 µM
same,TGI,A498 renal,47.2 µM
same,TGI,OVCAR-4 ovarian,35.2 µM
same,TGI,MCF7 breast,26.7 µM
same,TGI,UACC-257 melanoma,94.3 µM
same,TGI,U251 CNS,23.4 µM
same,TGI,HCC-2998 colon,7.18 µM
same,TGI,BT-549 breast,3.06 µM
same,TGI,PC-3 prostate,21.1 µM
same,TGI,SR leukemia,2.92 µM
same,TGI,SF-539 CNS,29.1 µM
same,TGI,RXF 393 renal,34.3 µM
same,TGI,786-0 renal,28.5 µM
same,TGI,UO-31 renal,29.2 µM
same,TGI,DU-145 prostate,52.5 µM
same,TGI,SNB-19 CNS,> 100 µM
same,TGI,M14 melanoma,32.4 µM
same,TGI,T-47D breast,46.1 µM
same,TGI,RPMI-8226 leukemia,1.9 µM
same,TGI,HCT-116 colon,19.7 µM
same,TGI,SF-268 CNS,55 µM
same,TGI,SK-MEL-28 melanoma,37.4 µM
same,TGI,NCI-H23 lung,32.2 µM
same,TGI,HCT-15 colon,16.7 µM
same,TGI,LOX IMVI melanoma,23.2 µM
same,TGI,A549 NSCLC,21.6 µM
same,TGI,COLO 205 colon,3.3 µM
same,TGI,SNB-75 CNS,85.8 µM
same,TGI,HL-60(TB) leukemia,12.1 µM
same,TGI,CAKI-1 renal,86.4 µM
same,TGI,HOP-92 NSCLC,25.3 µM
same,TGI,K-562 leukemia,20 µM
same,TGI,SF-295 CNS,39 µM
same,TGI,SW-620 colon,45.6 µM
same,TGI,HS 578T breast,58.1 µM
same,TGI,OVCAR-3 ovarian,43.9 µM
same,TGI,HT29 colon,8.55 µM
same,TGI,OVCAR-8 ovarian,11.7 µM
same,TGI,TK-10 renal,> 100 µM
same,TGI,NCI-H460 lung,33.3 µM
same,TGI,EKVX NSCLC,> 100 µM
same,TGI,SN12C renal,7.35 µM
same,TGI,MALME-3M melanoma,64.3 µM
same,TGI,MDA-MB-435,22.3 µM

# — PubChem BioAssay (NCI)
